Columns and labels:
[1] = system: all types of the turfgrasses; assay: Turfgrass safety test, all turfgrasses as a group; type: in vivo
From the text: (§1) Commercially available sod mats of zoysiagrass and bentgrass, Kentucky bluegrass, and perennial ryegrass were purchased. After cutting each turf sod mat in a size of 10 cm×20 cm, it was transplanted to a rectangular plastic pot having a surface area of 300 cm^2 wherein mixed soils including blend of a bed soil (Boonong, Horticultural Nursery Soil No. 3) and sandy loam soil were filled (mixing ratio, 1:1). After transplanting, the grass was mowed (0.5˜1.0 cm in height) once a week, and kept for one month in a greenhouse maintained at 25˜30° C. (day) or 15˜25° C. (night), then the test substance of the present invention was applied at dosage of 4, 2, 1 and 0.5 kg/ha. As a reference, Dithiopyr (32% EC, manufactured by Dongbu Hannong Chemical Company, KOREA) was applied at the recommended rate of 0.48 kg/ha, or twice or quadruple amount thereof, i.e., 0.96 and 1.92 kg/ha, respectively. Spray was made by a track sprayer equipped with a Teejet 8002 nozzle. Spray volume was adjusted to 2,000 L/ha, which was a typical value for an Asian (Korea and Japan) golf course. The spray solution was prepared by dissolving the “test substance” in acetone and adding the same volume of 0.2% (v/v) Tween 20 aqueous solution. Two, four or six weeks after the spray of the test substance, phytotoxicity to the turfgrass were visually evaluated based on 0 to 10 scale (0: no phytotoxic effect, 10: completely killed). The test was conducted in a randomized block design with a three replicates and the results were summarized in the following Table 2 is an average value of the replicates.

Indian joint-vetch = assay: Upland pot test, pre-/post-emergence spray, visual rating; type: in vivo, Indian joint-vetch (AESIN); details: 2 weeks after spray, 0-10 scale (10=completely killed)
From the text: (§2) To a rectangular plastic pot having a surface area of 300 cm^2, mixed soils including blend bed soil (Boonong, Horticultural Bed Soil No. 3) and sandy loam soil were filled (mixing ratio, 1:1). Seeds of the eight different types of weeds including gramineous weed such as barnyardgrass, large crabgrass, green foxtail, fall panicum, and broadleaf weed such as common cocklebur, velvetleaf, Indian joint-vetch, and morningglory were sown. To the other pot containing the same soil mixture, seeds of the five different types of crops including corn, soybean, cotton, wheat and rice were sown. Pots were kept in a greenhouse of which temperature was maintained at 25˜30° C. (day) or 15˜25° C. (night), and regularly watered.
(§3) After fourteen days and when the crops and the weeds reached their three-leaf stage, the other set of a crop pot and a weed pot were prepared by the same method as described above. Then, “test substance” was sprayed thereto. In this case, spray treatment to the plants after they have grown for two weeks corresponded to post-emergence treatment while spray treatment to the seeds right after the sowing corresponded to pre-emergence treatment. Spray was carried out by using a track sprayer (R&D Sprayer, USA) equipped with a Teejet 8002 nozzle (Spraying Systems Co., USA). Spray volume was adjusted to 300 L/ha. The spray solution was prepared by dissolving the “test substance” in acetone and adding the same volume of 0.2% (v/v) Tween 20 aqueous solution. Dosage of the test substance was 500, 250, 125, 62.5 or 31.3 g/ha. Two weeks after the spray of the test substance, efficacy and phytotoxic effect to the crops and the weeds were visually measured based on a 0 to 10 scale (0: no efficacy, 10: completely killed).

Velvetleaf = assay: as above; type: in vivo, velvetleaf (ABUTH); details: 2 weeks after spray, 0-10 scale (10=completely killed)
From the text: as §2, §3

Zoysiagrass = assay: Turfgrass safety test (sod mat pots), visual phytotoxicity; type: in vivo, Zoysia japonica; details: in vivo
From the text: as §1

Soybean = assay: Upland pot test, pre-/post-emergence spray, visual rating; type: in vivo, soybean (GLYMX); details: for Visual measurement: Crops, Soybean: 2 weeks after spray, 0-10 scale (10=completely killed)
From the text: as §2, §3

Corn = assay: as above; type: in vivo, corn (ZEAMX); details: for Visual measurement: Crops, Corn: 2 weeks after spray, 0-10 scale (10=completely killed)
From the text: as §2, §3

Wheat = assay: as above; type: in vivo, wheat (TRIAZ); details: for Visual measurement: Crops, Wheat: 2 weeks after spray, 0-10 scale (10=completely killed)
From the text: as §2, §3

Large crabgrass = assay: as above; type: in vivo, large crabgrass (DIGSA); details: pre-emergence application, 0.06~0.12 kg/ha
Barnyardgrass = assay: as above; type: in vivo, barnyardgrass (ECHCG); details: 2 weeks after spray, 0-10 scale (10=completely killed)
From the text: as §2, §3

[2] = post-emergence foliar spray at three leaf stage, 31.2 g/ha
[3] = post-emergence foliar spray at three leaf stage, 62.5 g/ha
[4] = post-emergence foliar spray at three leaf stage, 125 g/ha
[5] = post-emergence foliar spray at three leaf stage, 250 g/ha
[6] = post-emergence foliar spray at three leaf stage, 500 g/ha
[7] = pre-emergence soil treatment, 31.2 g/ha
[8] = pre-emergence soil treatment, 62.5 g/ha
[9] = pre-emergence soil treatment, 125 g/ha
[10] = pre-emergence soil treatment, 250 g/ha
[11] = pre-emergence soil treatment, 500 g/ha

Cc1ccsc1C1=NOC(C)(COCc2c(F)cccc2F)C1 (centres unmarked) [test substance, 5-(2,6-difluorobenzyl)oxymethyl-5-methyl-3-(4-methylthiophen-5-yl)-1,2-isoxazoline]
Phytotoxicity to turfgrasses (in words) ([1]; 1~2 kg/ha, compared to Dithiopyr at 0.48 kg/ha): negligible phytotoxicity
Safety to all types of the turfgrasses (in words) ([1]; 4 kg/ha): excellent safety
Phytotoxic effect to turfgrasses (in words) ([1]; dosage the same or less than 0.5 kg/ha): almost no phytotoxic effect
Visual measurement: Broadleaf weed, Indian joint-vetch (Indian joint-vetch; [2]): 0
Visual measurement: Broadleaf weed, Indian joint-vetch (Indian joint-vetch; [3]): 1
Visual measurement: Broadleaf weed, Indian joint-vetch (Indian joint-vetch; [4]): 2
Visual measurement: Broadleaf weed, Indian joint-vetch (Indian joint-vetch; [5]): 3
Visual measurement: Broadleaf weed, Indian joint-vetch (Indian joint-vetch; [6]): 4
Visual measurement: Broadleaf weed, Indian joint-vetch (Indian joint-vetch; [7]): 0
Visual measurement: Broadleaf weed, Indian joint-vetch (Indian joint-vetch; [8]): 0
Visual measurement: Broadleaf weed, Indian joint-vetch (Indian joint-vetch; [9]): 0
Visual measurement: Broadleaf weed, Indian joint-vetch (Indian joint-vetch; [10]): 0
Visual measurement: Broadleaf weed, Indian joint-vetch (Indian joint-vetch; [11]): 0
Visual measurement: Broadleaf weed, Velvetleaf (Velvetleaf; [2]): 0
Visual measurement: Broadleaf weed, Velvetleaf (Velvetleaf; [3]): 0
Visual measurement: Broadleaf weed, Velvetleaf (Velvetleaf; [4]): 1
Visual measurement: Broadleaf weed, Velvetleaf (Velvetleaf; [5]): 3
Visual measurement: Broadleaf weed, Velvetleaf (Velvetleaf; [6]): 6
Visual measurement: Broadleaf weed, Velvetleaf (Velvetleaf; [7]): 0
Visual measurement: Broadleaf weed, Velvetleaf (Velvetleaf; [8]): 0
Visual measurement: Broadleaf weed, Velvetleaf (Velvetleaf; [9]): 0
Visual measurement: Broadleaf weed, Velvetleaf (Velvetleaf; [10]): 0
Visual measurement: Broadleaf weed, Velvetleaf (Velvetleaf; [11]): 0
Phytotoxic effect, visual assessment: Zoysiagrass Week 6 (Zoysiagrass; Zoysia japonica (zoysiagrass), 6 weeks): 0.0
Phytotoxic effect, visual assessment: Zoysiagrass Week 2 (Zoysiagrass): 2.7
Phytotoxic effect, visual assessment: Zoysiagrass Week 4 (Zoysiagrass): 1.7
Phytotoxic effect, visual assessment: Zoysiagrass Week 6 (Zoysiagrass): 1.0
Phytotoxic effect, visual assessment: Zoysiagrass Week 2 (Zoysiagrass; zoysiagrass (Zoysia japonica), 2 weeks): 0.0
Phytotoxic effect, visual assessment: Zoysiagrass Week 4 (Zoysiagrass; zoysiagrass (Zoysia japonica), 4 weeks): 0.0
Phytotoxic effect, visual assessment: Zoysiagrass Week 6 (Zoysiagrass; zoysiagrass (Zoysia japonica), 6 weeks): 0.0
Visual measurement: Crops, Soybean (Soybean; [2]): 0
Visual measurement: Crops, Soybean (Soybean; [3]): 0
Visual measurement: Crops, Soybean (Soybean; [4]): 0
Visual measurement: Crops, Soybean (Soybean; [5]): 2
Visual measurement: Crops, Soybean (Soybean; [6]): 6
Safety to soybean (in words) (Soybean; post-emergence treatment): not safe
Visual measurement: Crops, Soybean (Soybean; [7]): 0
Visual measurement: Crops, Soybean (Soybean; [8]): 0
Visual measurement: Crops, Soybean (Soybean; [9]): 0
Visual measurement: Crops, Soybean (Soybean; [10]): 0
Visual measurement: Crops, Soybean (Soybean; [11]): 0
Visual measurement: Crops, Corn (Corn; [2]): 0
Visual measurement: Crops, Corn (Corn; [3]): 2
Visual measurement: Crops, Corn (Corn; [4]): 2
Visual measurement: Crops, Corn (Corn; [5]): 3
Visual measurement: Crops, Corn (Corn; [6]): 8
Safety to corn (in words) (Corn; post-emergence treatment): not safe
Visual measurement: Crops, Corn (Corn; [7]): 0
Visual measurement: Crops, Corn (Corn; [8]): 0
Visual measurement: Crops, Corn (Corn; [9]): 0
Visual measurement: Crops, Corn (Corn; [10]): 0
Visual measurement: Crops, Corn (Corn; [11]): 0
Visual measurement: Crops, Wheat (Wheat; [2]): 0
Visual measurement: Crops, Wheat (Wheat; [3]): 0
Visual measurement: Crops, Wheat (Wheat; [4]): 0
Visual measurement: Crops, Wheat (Wheat; [5]): 0
Visual measurement: Crops, Wheat (Wheat; [6]): 0
Safety to wheat (in words) (Wheat; post-emergence treatment): safe
Visual measurement: Crops, Wheat (Wheat; [7]): 0
Visual measurement: Crops, Wheat (Wheat; [8]): 0
Visual measurement: Crops, Wheat (Wheat; [9]): 0
Visual measurement: Crops, Wheat (Wheat; [10]): 0
Visual measurement: Crops, Wheat (Wheat; [11]): 0
Control of large crabgrass (in words) (Large crabgrass): almost completely
Visual measurement: Gramineous weed, Barnyardgrass (Barnyardgrass; [2]): 0
Visual measurement: Gramineous weed, Barnyardgrass (Barnyardgrass; [3]): 2
Visual measurement: Gramineous weed, Barnyardgrass (Barnyardgrass; [4]): 3
Visual measurement: Gramineous weed, Barnyardgrass (Barnyardgrass; [5]): 7
Visual measurement: Gramineous weed, Barnyardgrass (Barnyardgrass; [6]): 9
Visual measurement: Gramineous weed, Barnyardgrass (Barnyardgrass; [7]): 2
Visual measurement: Gramineous weed, Barnyardgrass (Barnyardgrass; [8]): 4
Visual measurement: Gramineous weed, Barnyardgrass (Barnyardgrass; [9]): 10
Visual measurement: Gramineous weed, Barnyardgrass (Barnyardgrass; [10]): 10
Visual measurement: Gramineous weed, Barnyardgrass (Barnyardgrass; [11]): 10

Source: patent publication US8445409B2, “Use of 5-benzyloxymethyl-1,2-isoxazoline derivatives as a herbicide” (Moghu Research Center Ltd., priority 2007, dated 2013)
